# US11053204B2, “Pyrimidinyloxy benzene derivatives as herbicides” (FMC Corporation, priority 2015, dated 2021)
# Columns and labels:
# Assay type in all cases: in vivo
# [1] = tested on: Italian ryegrass (Lolium multiflorum); experiment: Test A preemergence, visual injury rating; settings: for Ryegrass, Italian plant response rating: 0 to 100 scale (0 no effect, 100 complete control)
# Outline: (§1)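 Scoring: eye-based comparison with untreated controls, 0 for no effect through 100 for complete control, at about day 10. Treatments: directed soil spray preemergence; foliar spray postemergence on 2–10 cm plants at the one- to two-leaf stage. Medium: loam soil with sand.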
# [2] = tested on: barnyardgrass (Echinochloa crus-galli); experiment: Test A preemergence, visual injury rating; settings: for Barnyardgrass plant response rating: 0 to 100 scale (0 no effect, 100 complete control)
# Outline: as §1
# [3] = tested on: giant foxtail (Setaria faberii); experiment: Test A preemergence, visual injury rating; settings: for Foxtail, Giant plant response rating: 0 to 100 scale (0 no effect, 100 complete control)
# Outline: as §1
# kochia (Kochia scoparia) [4] = experiment: Test A preemergence, visual injury rating; settings: for Kochia plant response rating: 0 to 100 scale (0 no effect, 100 complete control)
# Outline: as §1
# [5] = tested on: pigweed (Amaranthus retroflexus); experiment: Test A preemergence, visual injury rating; settings: for Pigweed plant response rating: 0 to 100 scale (0 no effect, 100 complete control)
# Outline: as §1
# [6] = tested on: ragweed (common ragweed, Ambrosia elatior); experiment: Test A preemergence, visual injury rating; settings: for Ragweed plant response rating: 0 to 100 scale (0 no effect, 100 complete control)
# Outline: as §1
# [7] = tested on: Italian ryegrass (Lolium multiflorum); experiment: Test A postemergence, visual injury rating; settings: 0 is no effect, 100 is complete control; for Ryegrass, Italian plant response rating: 0 to 100 scale, approximately 10 days
# Source text: (§2) Seeds of plant species selected from barnyardgrass (Echinochloa crus-galli), kochia (Kochia scoparia), ragweed (common ragweed, Ambrosia elatior), Italian ryegrass (Lolium multiflorum), large (Lg) crabgrass (Digitaria sanguinalis), giant foxtail (Setaria faberii), morningglory (Ipomoea spp.), pigweed (Amaranthus retroflexus), velvetleaf (Abutilon theophrasti), wheat (Triticum aestivum), and corn (Zea mays) were planted into a blend of loam soil and sand and treated preemergence with a directed soil spray using test chemicals formulated in a non-phytotoxic solvent mixture which included a surfactant.
# (§3) At the same time, plants selected from these crop and weed species and also blackgrass (Alopecurus myosuroides), and galium (catchweed bedstraw, Galium aparine) were planted in pots containing the same blend of loam soil and sand and treated with postemergence applications of test chemicals formulated in the same manner. Plants ranged in height from 2 to 10 cm and were in the one- to two-leaf stage for the postemergence treatment. Treated plants and untreated controls were maintained in a greenhouse for approximately 10 days, after which time all treated plants were compared to untreated controls and visually evaluated for injury. Plant response ratings, summarized in Table A, are based on a 0 to 100 scale where 0 is no effect and 100 is complete control. A dash (-) response means no test result.
# [8] = tested on: barnyardgrass (Echinochloa crus-galli); experiment: Test A postemergence, visual injury rating; settings: 0 is no effect, 100 is complete control; for Barnyardgrass plant response rating: 0 to 100 scale, approximately 10 days
# Source text: as §2, §3
# [9] = tested on: blackgrass (Alopecurus myosuroides); experiment: Test A postemergence, visual injury rating; settings: 0 is no effect, 100 is complete control; for Blackgrass plant response rating: 0 to 100 scale, approximately 10 days
# Source text: as §2, §3
# corn (Zea mays) = experiment: Test A postemergence, visual injury rating; settings: 0 is no effect, 100 is complete control; for Corn plant response rating: 0 to 100 scale, approximately 10 days
# Source text: as §2, §3
# [10] = tested on: galium (catchweed bedstraw, Galium aparine); experiment: Test A postemergence, visual injury rating; settings: 0 is no effect, 100 is complete control; for Galium plant response rating: 0 to 100 scale, approximately 10 days
# Source text: as §2, §3
# [11] = tested on: giant foxtail (Setaria faberii); experiment: Test A postemergence, visual injury rating; settings: 0 is no effect, 100 is complete control; for Foxtail, Giant plant response rating: 0 to 100 scale, approximately 10 days
# Source text: as §2, §3
# kochia (Kochia scoparia) [12] = experiment: Test A postemergence, visual injury rating; settings: 0 is no effect, 100 is complete control; for Kochia plant response rating: 0 to 100 scale, approximately 10 days
# Source text: as §2, §3
# [13] = tested on: pigweed (Amaranthus retroflexus); experiment: Test A postemergence, visual injury rating; settings: 0 is no effect, 100 is complete control; for Pigweed plant response rating: 0 to 100 scale, approximately 10 days
# Source text: as §2, §3
# [14] = tested on: ragweed (common ragweed, Ambrosia elatior); experiment: Test A postemergence, visual injury rating; settings: 0 is no effect, 100 is complete control; for Ragweed plant response rating: 0 to 100 scale, approximately 10 days
# Source text: as §2, §3
# [15] = tested on: wheat (Triticum aestivum); experiment: Test A postemergence, visual injury rating; settings: 0 is no effect, 100 is complete control; for Wheat plant response rating: 0 to 100 scale, approximately 10 days
# Source text: as §2, §3
# [16] = tested on: barnyardgrass (Echinochloa crus-galli); experiment: Test B flooded paddy test, plant response rating; settings: 250 g ai/ha; Flood; scale of 0 to 100 where 0 is no effect and 100 is complete control; 13 to 15 days
# Outline: (§4)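 Flooded 3 cm over soil; compound into paddy water; depth kept constant. Greenhouse 13–15 d.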
# [17] = tested on: ducksalad (Heteranthera limosa); experiment: Test B flooded paddy test, plant response rating; settings: 250 g ai/ha; Flood; scale of 0 to 100 where 0 is no effect and 100 is complete control; 13 to 15 days
# Outline: as §4
# rice (Oryza sativa) = experiment: Test B flooded paddy test, plant response rating; settings: 250 g ai/ha; Flood; scale of 0 to 100 where 0 is no effect and 100 is complete control; 13 to 15 days
# Outline: as §4
# [18] = tested on: sedge, umbrella (small-flower umbrella sedge, Cyperus difformis); experiment: Test B flooded paddy test, plant response rating; settings: 250 g ai/ha; Flood; scale of 0 to 100 where 0 is no effect and 100 is complete control; 13 to 15 days
# Outline: as §4
# [19] = 31 g ai/ha, 0 to 100 scale, 0 no effect, 100 complete control
compound,measurement,setting,value
O=C(SCC(F)(F)F)c1c(Br)cccc1Oc1ncc(Cl)cn1 [Compound 85],"Ryegrass, Italian plant response rating",[1]; 125 g ai/ha,0
same,"Ryegrass, Italian plant response rating",[1]; 500 g ai/ha,0
same,Barnyardgrass plant response rating,[2]; 125 g ai/ha,0
same,Barnyardgrass plant response rating,[2]; 500 g ai/ha,10
same,"Foxtail, Giant plant response rating",[3]; 125 g ai/ha,0
same,"Foxtail, Giant plant response rating",[3]; 500 g ai/ha,70
same,Kochia plant response rating,kochia (Kochia scoparia) [4]; 125 g ai/ha,0
same,Kochia plant response rating,kochia (Kochia scoparia) [4]; 500 g ai/ha,0
same,Pigweed plant response rating,[5]; 125 g ai/ha,0
same,Pigweed plant response rating,[5]; 500 g ai/ha,60
same,Ragweed plant response rating,[6]; 125 g ai/ha,0
same,Ragweed plant response rating,[6]; 500 g ai/ha,0
same,"Ryegrass, Italian plant response rating",[7]; 125 g ai/ha,0
same,"Ryegrass, Italian plant response rating (0 to 100 scale)",[7]; 500 g ai/ha,0
same,Barnyardgrass plant response rating,[8]; 125 g ai/ha,0
same,Barnyardgrass plant response rating (0 to 100 scale),[8]; 500 g ai/ha,20
same,Blackgrass plant response rating,[9]; 125 g ai/ha,0
same,Blackgrass plant response rating (0 to 100 scale),[9]; 500 g ai/ha,0
same,Corn plant response rating,corn (Zea mays); 125 g ai/ha,10
same,Corn plant response rating (0 to 100 scale),corn (Zea mays); 500 g ai/ha,40
same,Galium plant response rating,[10]; 125 g ai/ha,30
same,Galium plant response rating (0 to 100 scale),[10]; 500 g ai/ha,90
same,"Foxtail, Giant plant response rating",[11]; 125 g ai/ha,0
same,"Foxtail, Giant plant response rating (0 to 100 scale)",[11]; 500 g ai/ha,60
same,Kochia plant response rating,kochia (Kochia scoparia) [12]; 125 g ai/ha,30
same,Kochia plant response rating (0 to 100 scale),kochia (Kochia scoparia) [12]; 500 g ai/ha,80
same,Pigweed plant response rating,[13]; 125 g ai/ha,30
same,Pigweed plant response rating (0 to 100 scale),[13]; 500 g ai/ha,70
same,Ragweed plant response rating,[14]; 125 g ai/ha,0
same,Ragweed plant response rating (0 to 100 scale),[14]; 500 g ai/ha,0
same,Wheat plant response rating,[15]; 125 g ai/ha,0
same,Wheat plant response rating (0 to 100 scale),[15]; 500 g ai/ha,20
same,"Plant response rating, Barnyardgrass",[16],0
same,"Plant response rating, Ducksalad",[17],0
same,"Plant response rating, Rice",rice (Oryza sativa),0
same,"Plant response rating, Sedge, Umbrella",[18],0
C=CC(C)COC(=O)c1c(Br)cccc1Oc1ncc(Cl)cn1 (stereo not drawn) [Compound 37],"Plant response rating, Ryegrass, Italian",[1]; [19],0
same,"Ryegrass, Italian plant response rating",[1]; 125 g ai/ha,0
same,"Plant response rating, Barnyardgrass",[2]; [19],0
same,Barnyardgrass plant response rating,[2]; 125 g ai/ha,30
same,"Plant response rating, Foxtail, Giant",[3]; [19],20
same,"Foxtail, Giant plant response rating",[3]; 125 g ai/ha,70
same,"Plant response rating, Kochia",kochia (Kochia scoparia) [4]; [19],0
same,Kochia plant response rating,kochia (Kochia scoparia) [4]; 125 g ai/ha,0
same,"Plant response rating, Pigweed",[5]; [19],0
same,Pigweed plant response rating,[5]; 125 g ai/ha,0
same,"Plant response rating, Ragweed",[6]; [19],0
same,Ragweed plant response rating,[6]; 125 g ai/ha,0
same,"Ryegrass, Italian plant response rating",[7]; 31 g ai/ha,0
same,"Ryegrass, Italian plant response rating (0 to 100 scale)",[7]; 125 g ai/ha,0
same,Barnyardgrass plant response rating,[8]; 31 g ai/ha,0
same,Barnyardgrass plant response rating (0 to 100 scale),[8]; 125 g ai/ha,30
same,Blackgrass plant response rating,[9]; 31 g ai/ha,0
same,Blackgrass plant response rating (0 to 100 scale),[9]; 125 g ai/ha,30
same,Corn plant response rating,corn (Zea mays); 31 g ai/ha,0
same,Corn plant response rating (0 to 100 scale),corn (Zea mays); 125 g ai/ha,10
same,Galium plant response rating,[10]; 31 g ai/ha,10
same,Galium plant response rating (0 to 100 scale),[10]; 125 g ai/ha,40
same,"Foxtail, Giant plant response rating",[11]; 31 g ai/ha,0
same,"Foxtail, Giant plant response rating (0 to 100 scale)",[11]; 125 g ai/ha,40
same,Kochia plant response rating,kochia (Kochia scoparia) [12]; 31 g ai/ha,0
same,Kochia plant response rating (0 to 100 scale),kochia (Kochia scoparia) [12]; 125 g ai/ha,40
same,Pigweed plant response rating,[13]; 31 g ai/ha,20
same,Pigweed plant response rating (0 to 100 scale),[13]; 125 g ai/ha,80
same,Ragweed plant response rating,[14]; 31 g ai/ha,0
same,Ragweed plant response rating (0 to 100 scale),[14]; 125 g ai/ha,0
same,Wheat plant response rating,[15]; 31 g ai/ha,0
same,Wheat plant response rating (0 to 100 scale),[15]; 125 g ai/ha,0
same,"Plant response rating, Barnyardgrass",[16],0
same,"Plant response rating, Ducksalad",[17],0
same,"Plant response rating, Rice",rice (Oryza sativa),0
same,"Plant response rating, Sedge, Umbrella",[18],0
